Series [1] has as its target T1, ERK5 (Homo sapiens, UniProt Q13164). Description: ERK5 kinase activity in vitro assay (32P-ATP, PIMtide substrate). Also on record: hexahistidine (His6) (N); made in house; host or cells: Spodoptera frugiperda 21 cells (baculovirus, Bac-to-Bac). It counts as biochemical. The following applies: in vitro assay, recombinant active ERK5; read-out: Enzymatic IC50 (ERK5). Here is the method: pFastBAC vector encoding N-terminal hexahistidine-tagged human ERK5 and HA-tagged human MEK5-DD (constitutively active) were used to generate recombinant baculovirus using the Bac-to-Bac system (Invitrogen). […] His-tagged ERK5 was purified as described for His-tagged BRSK1[33], using 5 mL Ni-NTA-agarose resin (Qiagen) followed by gel filtration chromatography on Superdex 200HR column on an AKTA system (GE Healthcare).
Assays were carried out for 20 min at 30 °C, terminated by applying the reaction mixture onto p81 paper and the incorporated radioactivity measured as described previously.

Series [2] addresses T2, panel of 442 kinases (Homo sapiens, UniProt Q5S007).
T2 construct: purchased KINOMEscan
It counts as binding. The following applies: Compound Concentration 10 µM. The text has this:
We assessed the selectivity of members of this scaffold using the KINOMEscan methodology across a near comprehensive panel of 442 kinases [[18,27]].

The target in series [3] is T1, ERK5. Description: ERK5 autophosphorylation assay (EGF-stimulated, mobility shift immunoblot). The series is classed as cell-based. Also on record: endogenous in cells; host or cells: HeLa. The following applies: inhibition of EGF-stimulated autophosphorylation of ERK5 in HeLa cells; read-out: Cellular EC50 (ERK5). From the text: Proteins from total cell lysates were resolved by 6% sodium dodecyl sulfate (SDS)-poly-acrylamide gel electrophoresis (PAGE), transferred to nitrocellulose membrane, blocked in 5% nonfat milk, and blotted with anti-ERK5 antibody.

Series [4] concerns the target LRRK2[A2016T] (Homo sapiens, UniProt Q5S007, A2016T). Description: LRRK2 cellular assay, Ser910/Ser935 phosphorylation in stably transfected HEK293 cells. The note with it: drug-resistant mutant, up to 3 μM.
Description: (§1) Our cellular assay for LRRK2 measures the ability of compounds to inhibit LRRK2-dependent phosphorylation of Ser910 and Ser935 in stably transformed HEK293 cells as described previously [[21,25]].
(§2) As there are no validated direct phosphorylation substrates of LRRK2, we monitored phosphorylation of Ser910 and Ser935, two residues whose phosphorylation is known to be dependent upon LRRK2 kinase activity [25]
(§3) Cell culture, treatments and cell lysis. HEK293 was cultured in DMEM (Dulbecco's Modified Eagle's medium) supplemented with 10% FBS (fetal bovine serum), 2 mM glutamine and 1× penicillin/streptomycin solution. […] Following treatment, cells were washed once with phosphate buffered saline (PBS) buffer and lysed with lysis buffer (50 mM Tris/HCl, pH 7.5, 1 mM EGTA, 1 mM EDTA, 1 mM sodium orthovanadate, 10 mM sodium β-glycerophosphate, 50 mM NaF, 5 mM sodium pyrophosphate, 0.27 M sucrose, 1 mM benzamidine, 2 mM phenylmethanesulphonylfluoride (PMSF) and 1% Triton X-100). When not used immediately, all lysate supernatants were snap-frozen in liquid nitrogen and stored at −80 °C until use. Protein concentrations were determined following centrifugation of the lysate at 16,000× g at 4 °C for 20 min using the Bradford method with BSA as the standard. Transient transfection of HEK 293 cells was performed using the polyethyleneimine (PEI) method [35]. […]
The nature of series [5]: Pharmacokinetics after intravenous and oral delivery in mice. It counts as in vivo. Here is the method: The pharmacokinetic properties of 26 were also evaluated following intravenous and oral delivery in mice.
The test system of series [6] is endogenous LRRK2. The series is classed as cell-based. The following applies: EBV immortalized human lymphoblastoid cells, 90 min.
Series [7] has as its target wild-type LRRK2 (Homo sapiens, UniProt Q5S007). Description: LRRK2 cellular assay, Ser910/Ser935 phosphorylation in stably transfected HEK293 cells. The note with it: up to 3 μM, 90 min.
Description: as §1, §2, §3

Values joined by “and” are separate entries in the source; they are usually repeats but may differ in a detail not shown here. Equal entries are not always repeated.

Usually IC50 stands for the point on the concentration scale where inhibition reaches its midpoint. In general, EC50 refers to the midpoint of the concentration-response curve. As usually defined, the Cmax is the highest concentration seen after dosing.

T1 sequence (Q13164 whole entry): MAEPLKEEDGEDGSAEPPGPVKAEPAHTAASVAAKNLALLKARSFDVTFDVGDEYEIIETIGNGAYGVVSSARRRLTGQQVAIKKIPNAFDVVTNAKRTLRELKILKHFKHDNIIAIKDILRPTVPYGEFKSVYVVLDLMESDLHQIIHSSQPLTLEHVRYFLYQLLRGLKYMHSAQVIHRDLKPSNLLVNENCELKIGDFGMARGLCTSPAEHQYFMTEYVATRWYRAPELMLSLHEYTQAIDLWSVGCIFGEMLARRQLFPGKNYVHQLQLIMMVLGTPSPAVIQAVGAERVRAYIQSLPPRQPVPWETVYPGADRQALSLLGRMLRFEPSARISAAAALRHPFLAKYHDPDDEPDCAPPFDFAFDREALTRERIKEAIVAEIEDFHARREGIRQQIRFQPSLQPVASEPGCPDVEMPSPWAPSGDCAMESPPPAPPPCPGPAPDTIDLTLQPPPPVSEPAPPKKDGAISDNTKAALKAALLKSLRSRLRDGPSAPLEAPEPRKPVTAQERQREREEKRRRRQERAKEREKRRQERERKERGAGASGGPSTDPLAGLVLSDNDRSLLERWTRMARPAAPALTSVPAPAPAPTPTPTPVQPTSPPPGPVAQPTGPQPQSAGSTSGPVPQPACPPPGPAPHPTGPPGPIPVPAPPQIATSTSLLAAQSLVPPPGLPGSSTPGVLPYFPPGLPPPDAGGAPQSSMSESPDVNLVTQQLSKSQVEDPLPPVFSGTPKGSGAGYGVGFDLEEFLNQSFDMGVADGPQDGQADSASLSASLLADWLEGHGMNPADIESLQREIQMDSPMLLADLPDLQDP
T2 sequence (Q5S007 whole entry): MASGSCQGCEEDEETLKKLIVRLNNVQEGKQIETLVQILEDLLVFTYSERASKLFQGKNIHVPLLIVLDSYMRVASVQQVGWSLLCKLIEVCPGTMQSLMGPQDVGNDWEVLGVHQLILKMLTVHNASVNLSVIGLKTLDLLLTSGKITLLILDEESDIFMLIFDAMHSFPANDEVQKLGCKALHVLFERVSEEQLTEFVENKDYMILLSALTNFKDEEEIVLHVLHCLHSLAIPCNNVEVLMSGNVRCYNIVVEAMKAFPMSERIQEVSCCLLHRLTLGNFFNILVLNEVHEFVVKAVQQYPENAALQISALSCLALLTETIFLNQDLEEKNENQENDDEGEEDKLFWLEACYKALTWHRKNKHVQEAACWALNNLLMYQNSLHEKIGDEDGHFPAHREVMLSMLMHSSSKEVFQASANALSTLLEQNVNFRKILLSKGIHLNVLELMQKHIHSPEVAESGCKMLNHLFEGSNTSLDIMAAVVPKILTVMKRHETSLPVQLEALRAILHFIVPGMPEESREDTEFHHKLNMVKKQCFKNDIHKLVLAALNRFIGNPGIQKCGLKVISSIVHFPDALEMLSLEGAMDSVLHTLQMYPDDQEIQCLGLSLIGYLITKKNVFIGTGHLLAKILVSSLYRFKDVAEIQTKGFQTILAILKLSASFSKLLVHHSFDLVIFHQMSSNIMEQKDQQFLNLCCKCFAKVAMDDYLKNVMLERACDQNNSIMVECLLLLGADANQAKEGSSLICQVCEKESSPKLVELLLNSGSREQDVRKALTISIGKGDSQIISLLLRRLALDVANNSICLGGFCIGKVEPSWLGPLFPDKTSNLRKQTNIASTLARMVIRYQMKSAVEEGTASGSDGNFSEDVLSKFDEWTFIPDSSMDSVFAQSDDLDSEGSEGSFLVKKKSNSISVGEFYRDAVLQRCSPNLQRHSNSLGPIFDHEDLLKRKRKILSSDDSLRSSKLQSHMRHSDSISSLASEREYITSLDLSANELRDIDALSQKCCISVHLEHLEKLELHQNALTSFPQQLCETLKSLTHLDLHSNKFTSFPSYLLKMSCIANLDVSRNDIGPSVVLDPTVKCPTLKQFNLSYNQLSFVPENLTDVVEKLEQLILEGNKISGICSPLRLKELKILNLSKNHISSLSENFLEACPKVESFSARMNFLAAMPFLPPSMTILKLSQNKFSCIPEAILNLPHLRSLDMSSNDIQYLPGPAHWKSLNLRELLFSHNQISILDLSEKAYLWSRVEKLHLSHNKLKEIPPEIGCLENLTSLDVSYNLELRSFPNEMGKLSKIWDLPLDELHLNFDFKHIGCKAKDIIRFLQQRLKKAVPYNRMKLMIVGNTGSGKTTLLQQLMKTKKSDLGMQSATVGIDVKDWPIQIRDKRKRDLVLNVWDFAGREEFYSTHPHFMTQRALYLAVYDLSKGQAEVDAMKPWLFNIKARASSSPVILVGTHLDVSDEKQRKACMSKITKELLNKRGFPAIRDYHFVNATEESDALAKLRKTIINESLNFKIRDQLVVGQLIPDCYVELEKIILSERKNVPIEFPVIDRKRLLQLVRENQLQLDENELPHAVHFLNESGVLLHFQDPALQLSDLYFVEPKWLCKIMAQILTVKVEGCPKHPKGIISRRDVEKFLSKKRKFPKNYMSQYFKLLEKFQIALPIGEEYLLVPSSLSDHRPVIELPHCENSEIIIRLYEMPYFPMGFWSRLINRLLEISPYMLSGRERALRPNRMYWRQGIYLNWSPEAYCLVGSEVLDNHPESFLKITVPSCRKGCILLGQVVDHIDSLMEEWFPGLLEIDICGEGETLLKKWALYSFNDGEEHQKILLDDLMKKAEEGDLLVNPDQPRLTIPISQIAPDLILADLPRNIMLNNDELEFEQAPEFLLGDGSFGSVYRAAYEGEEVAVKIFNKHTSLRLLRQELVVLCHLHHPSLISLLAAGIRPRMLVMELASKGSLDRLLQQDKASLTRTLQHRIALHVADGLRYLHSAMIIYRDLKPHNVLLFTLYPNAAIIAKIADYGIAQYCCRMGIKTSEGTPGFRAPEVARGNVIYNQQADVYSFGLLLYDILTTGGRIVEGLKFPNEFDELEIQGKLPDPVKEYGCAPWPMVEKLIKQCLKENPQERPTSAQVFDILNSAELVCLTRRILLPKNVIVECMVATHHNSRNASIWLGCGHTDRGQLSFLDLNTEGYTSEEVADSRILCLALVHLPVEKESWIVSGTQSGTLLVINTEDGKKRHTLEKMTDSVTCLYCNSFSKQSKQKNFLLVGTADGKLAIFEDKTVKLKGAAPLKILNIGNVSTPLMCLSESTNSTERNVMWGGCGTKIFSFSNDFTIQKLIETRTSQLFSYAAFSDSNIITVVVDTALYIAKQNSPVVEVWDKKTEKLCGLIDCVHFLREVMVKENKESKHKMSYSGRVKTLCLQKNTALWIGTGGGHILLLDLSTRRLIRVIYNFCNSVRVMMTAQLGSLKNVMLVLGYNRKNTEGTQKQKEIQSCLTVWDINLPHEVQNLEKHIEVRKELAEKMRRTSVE
Chain of LRRK2[A2016T] (Q5S007 whole entry A2016T): as the sequence (Q5S007 whole entry) above, with A2016T counted along it
Chain of wild-type LRRK2 (Q5S007 whole entry): as the sequence (Q5S007 whole entry) above

Consider `COc1cc(C(=O)N2CCC(N3CCN(C)CC3)CC2)ccc1Nc1ncc2c(n1)N(C1CCCC1)c1ccccc1C(=O)N2C` [Compound 25, 11-cyclopentyl-2-((2-methoxy-4-(4-(4-methylpiperazin-1-yl)piperidine-1-carbonyl)phenyl)amino)-5-methyl-5H-benzo[e]pyrimido[5,4-b][1,4]diazepin-6(11H)-one], for which the IC50 in series [1] was 82 ± 9 nM. Further, the “KINOMEscan: LRRK2” value in series [2] is on record as 28. Besides, the EC50 in series [3] was 80 ± 20 nM.

For `COc1cc(C(=O)N2CCC(N3CCN(C)CC3)CC2)ccc1Nc1ncc2c(n1)N1CCc3cccc(c31)C(=O)N2C` [Compound 24], in series [1], the IC50 is 199 ± 12 nM. Also, the “effect on phosphorylation of Ser910 and Ser935” value in series [4] was “no effect”. Moreover, the EC50 in series [3] stood at 260 ± 40 nM.

For the compound `COc1cc(C(=O)N2CCC(N3CCN(C)CC3)CC2)ccc1Nc1ncc2c(n1)N(C)c1ccccc1C(=O)N2C` [15 (LRRK2-IN-1)], the “KINOMEscan: LRRK2” value in series [2] came out at 0.

As for `CCOc1cc(C(=O)N2CCC(N3CCN(C)CC3)CC2)ccc1Nc1ncc2c(n1)N(C1CCCC1)c1ccccc1C(=O)N2C` [Compound 26], in series [5] (IV, 1 mg/kg), the “AUC0−∞” value is 1743.83 ng·h/mL, the CL was determined as 8.64 mL/min/kg, the Cmax is on record as 439 ng/mL and the T1/2 is 8.2 h. In addition, the Vss in series [5] (IV, 1 mg/kg) stood at 4.67 L/kg. Also, in series [5] (PO, 10 mg/kg), the “AUC0−∞” value is 15745 ng·h/mL and 15745.48 ng·h/mL; the Cmax amounted to 1142.77 ng/mL; the “F (oral bioavailability)” value is given as 90%; the Tmax was found to be 4.0 H. In addition, the “effect on phosphorylation of endogenous LRRK2 at Ser910 and Ser935” value in series [6] is on record as “did not show inhibitory effects”. Moreover, in series [7], the “inhibitory effect against LRRK2 in cells (Ser910/Ser935 phosphorylation)” value was “did not show any inhibitory effect”.

The values above are taken from paper PMC3914206.
